Results reported in article PMC2667214, “End-Tagging of Ultra-Short Antimicrobial Peptides by W/F Stretches to Facilitate Bacterial Killing” (PLoS ONE, 2009).
Residues, ends and D or L forms follow the SMILES beside them. No end group written: not given here.

Experiments:
human leukocyte elastase = target: T1, human leukocyte elastase (Homo sapiens, UniProt P08246); experiment: Protease sensitivity assay; format: in vitro ADME; details: peptide 1 µg, neutrophil elastase 0.4 µg, 30 µl, 3 hours 37°C, SDS-PAGE 16.5% Tris-Tricine, Coomassie
T1 construct: purchased Calbiochem (La Jolla, USA)
T1 sequence (P08246 30-267): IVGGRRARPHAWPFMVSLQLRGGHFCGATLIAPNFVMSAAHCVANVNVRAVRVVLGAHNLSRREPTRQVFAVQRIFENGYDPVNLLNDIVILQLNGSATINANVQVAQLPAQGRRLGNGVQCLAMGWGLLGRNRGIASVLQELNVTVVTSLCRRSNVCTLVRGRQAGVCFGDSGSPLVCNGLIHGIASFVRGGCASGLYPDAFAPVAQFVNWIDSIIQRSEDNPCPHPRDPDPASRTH
Protocol: (§1) Peptides (1 µg) were incubated at 37°C with S. aureus aureolysin (0.1 µg, 25000 units/mg), S. aureus V8 proteinase (0.1 µg, 2000 mU), both from BioCol GmbH (Potsdam, Germany), or neutrophil elastase (0.4 µg, 29 units/mg; Calbiochem (La Jolla, USA)) in a total volume of 30 µl for 3 hours. The materials were analyzed on 16.5% precast sodium dodecyl sulfate polyacrylamide (SDS-PAGE) Tris-Tricine gels (BioRad, Hercules, USA) and analyzed after staining with Coomassie Blue R-250 (Merck, Darmstadt, Germany).
(§2) Figure 5 (A) Protease sensitivity of peptides. KNK10 and KNK10-WWWWW were incubated with (+) or without (−) the S. aureus enzymes aureolysin (Aur), V8 proteinase (V8), or human leukocyte elastase (HLE), and analyzed by SDS-PAGE (16.5% Tris-Tricine gels). (B) Activities of peptides in an ex vivo skin infection model. Pig skin was inoculated with E. coli ATCC 25922 (upper panel) or S. aureus ATCC 29213 (lower panel). Peptides at 1 mM were added after an incubation time of 4 h. Bacteria were collected after 2 h and cfu determined (mean values are presented, n = 6). Note the logarithmic scale on the y-axis. (In Figure 5B, the difference between tagged and non-tagged peptide is statistically significant in all cases (P<0.002, one way ANOVA).)

S. aureus aureolysin = target: T2, S. aureus aureolysin (Staphylococcus aureus, UniProt P81177); format: in vitro ADME; details: peptide 1 µg, aureolysin 0.1 µg, 30 µl, 3 hours 37°C, SDS-PAGE 16.5% Tris-Tricine, Coomassie
T2 construct: purchased BioCol GmbH (Potsdam, Germany)
T2 sequence (P81177 209-509): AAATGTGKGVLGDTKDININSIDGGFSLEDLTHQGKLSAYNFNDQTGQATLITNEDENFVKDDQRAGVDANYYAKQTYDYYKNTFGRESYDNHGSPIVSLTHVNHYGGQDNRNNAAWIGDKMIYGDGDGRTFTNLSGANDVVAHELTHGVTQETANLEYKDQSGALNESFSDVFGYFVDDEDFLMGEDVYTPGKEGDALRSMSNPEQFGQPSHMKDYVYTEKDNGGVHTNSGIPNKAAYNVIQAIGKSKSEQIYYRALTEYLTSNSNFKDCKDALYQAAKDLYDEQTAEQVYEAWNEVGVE
Protocol: as §1, §2

S. aureus V8 proteinase = target: T3, S. aureus V8 proteinase (Staphylococcus aureus, UniProt P0C1U8); format: in vitro ADME; details: peptide 1 µg, V8 proteinase 0.1 µg, 30 µl, 3 hours 37°C, SDS-PAGE 16.5% Tris-Tricine, Coomassie
T3 construct: purchased BioCol GmbH (Potsdam, Germany)
T3 sequence (P0C1U8 69-336): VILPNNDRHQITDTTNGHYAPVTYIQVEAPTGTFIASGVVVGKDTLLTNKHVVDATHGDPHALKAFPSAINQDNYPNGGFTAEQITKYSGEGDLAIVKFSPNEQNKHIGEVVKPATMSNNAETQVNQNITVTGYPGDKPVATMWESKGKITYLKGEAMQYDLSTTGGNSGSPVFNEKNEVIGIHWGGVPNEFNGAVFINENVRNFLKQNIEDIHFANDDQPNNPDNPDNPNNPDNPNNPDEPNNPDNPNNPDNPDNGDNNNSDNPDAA
Protocol: as §1, §2

[1] = test system: Staphylococcus aureus ATCC 29213; format: cell-based; details: ATCC 29213, 100
Protocol: (§3) Essentially as described earlier, [31] bacteria were grown to mid-logarithmic phase in 10 ml of full-strength (3% w/v) trypticase soy broth (TSB) (Becton-Dickinson, Cockeysville, USA). The microorganisms were then washed once with 10 mM Tris, pH 7.4. Subsequently, 4×10^6 bacterial colony forming units were added to 15 ml of the underlay agarose gel, consisting of 0.03% (w/v) TSB, 1% (w/v) low electroendosmosis type (EEO) agarose (Sigma-Aldrich, St. Louis, USA) and 0.02% (v/v) Tween 20 (Sigma-Aldrich, St. Louis, USA). The underlay was poured into a Ø 144 mm petri dish. After agarose solidification, 4 mm-diameter wells were punched and 6 µl of peptide with required concentration added to each well. Plates were incubated at 37°C for 3 hours to allow diffusion of the peptides. The underlay gel was then covered with 15 ml of molten overlay (6% TSB and 1% Low-EEO agarose in distilled H2O). […]
(§4) Figure 1 Antibacterial and hemolytic activity of peptides. (A) Antibacterial activity of PEPscreen peptides as assessed by radial diffusion assay (RDA) in the presence and absence of 0.15 M NaCl against E. coli ATCC 25922 and S. aureus ATCC 29213, as well as hemolysis. […] The absorbance of hemoglobin release was measured at 540 nm and is expressed as % of Triton X-100 induced hemolysis. […]

[2] = test system: Escherichia coli ATCC 25922; format: cell-based; details: ATCC 25922, 100
Protocol: as §3, §4

Compound	stability against proteolytic degradation (in words) (human leukocyte elastase)	stability against proteolytic degradation (in words) (S. aureus aureolysin)	stability against proteolytic degradation (in words) (S. aureus V8 proteinase)	clearance zone in RDA [1] [mm]	clearance zone in RDA [2] [mm]
CC[C@H](C)[C@H](NC(=O)[C@H](CCCCN)NC(=O)[C@H](CCC(=O)O)NC(=O)[C@H](CCCCN)NC(=O)[C@H](CO)NC(=O)[C@H](CCCCN)NC(=O)[C@H](CCCNC(=N)N)NC(=O)[C@H](Cc1ccccc1)NC(=O)[C@H](Cc1ccccc1)NC(=O)[C@H](CC(=O)O)NC(=O)CNC(=O)[C@H](CC(C)C)NC(=O)[C@@H](N)CC(C)C)C(=O)NCC(=O)N[C@@H](CCCCN)C(=O)N[C@@H](CCC(=O)O)C(=O)N[C@@H](Cc1ccccc1)C(=O)N[C@@H](CCCCN)C(=O)N[C@@H](CCCNC(=N)N)C(=O)N[C@H](C(=O)N[C@H](C(=O)N[C@@H](CCC(N)=O)C(=O)N[C@@H](CCCNC(=N)N)C(=O)N[C@H](C(=O)N[C@@H](CCCCN)C(=O)N[C@@H](CC(=O)O)C(=O)N[C@@H](Cc1ccccc1)C(=O)N[C@@H](CC(C)C)C(=O)N[C@@H](CCCNC(=N)N)C(=O)N[C@@H](CC(N)=O)C(=O)N[C@@H](CC(C)C)C(=O)N[C@H](C(=O)N1CCC[C@H]1C(=O)N[C@@H](CCCNC(=N)N)C(=O)N[C@H](C(=O)N[C@@H](CCC(=O)O)C(=O)N[C@@H](CO)C(=O)O)[C@@H](C)O)C(C)C)[C@@H](C)CC)C(C)C)[C@@H](C)CC [LL-37]	substantial degradation	substantial degradation	substantial degradation		
KNKGKKNGKH [KNK10]		good stability	good stability		
N[C@@H](Cc1c[nH]c2ccccc12)C(=O)N[C@@H](Cc1c[nH]c2ccccc12)C(=O)N[C@@H](Cc1c[nH]c2ccccc12)C(=O)O [WWW] (H-Trp-Trp-Trp-OH)				0	0
KNKGKKNGKHWWWWW [KNK10-WWWWW]		good stability	good stability		
